Results on two sequences are retold here after patent publication US7989466B2, “Methods to inhibit or augment an inflammatory response” (Cambridge Enterprise Limited, priority 1999, dated 2011).

The term % inhibition denotes the change of the read-out against control, counted positive when it falls.

What all share (assay type): cell-based
Assay [1] concerns TGFβ1 induced human monocyte migration. In words: Human monocyte migration, TGFβ1. The settings on record: n.s. = no statistically significant inhibition. How it is done: (§1) Agents may also be screened in a chemotactic assay which employs human neutrophils, eosinophils, mast cells, basophils, platelets, lymphocytes or monocytes. For monocytes, 9 mls of fresh blood are transferred to a tube containing 1 ml of 3.8% sodium citrate, and left at room temperature for 15 minutes. Five mls of this anti-coagulated blood are carefully layered over 3.5 ml Polymorphprep® (Nycomed Pharma, Oslo), and centrifuged at 500 g for 35 minutes per the manufacturer's instructions. The top band at the sample/medium interface contains monocytes. The monocytes are carefully removed with a glass pipette, and reconstituted to the original volume (5 ml). The cells are washed with PBS plus 10% fetal calf serum, and centrifuged at 400 g for 10 minutes. The washing step is repeated three times before the cells are counted. Cells are resuspended at 1×10^7 cells/ml in RPMI-1640+10% fetal calf serum (FCS). The monocytes are cultured for two days at 37° C. in a humidified atmosphere of 5% CO2.
On day 2, the cells are counted, spun down, and reconstituted to 1×10^7 cells/ml in Gey's balanced salt solution+1 mg/ml bovine serum albumin (BSA). […]

In another assay the test system is HIV (MN). As to the kind of experiment: HIV infectivity of THP-1 cells, p24gag immunofluorescence. Conditions: 100 μM peptide, HIV strain MN, 72 hours. How it is done:
(a) HIV (IIIb) replication in cultures of Jurkat T-cells was estimated by measuring the supernatant reverse transcriptase activity two weeks after infection. Peptide 2 and peptide 3 were at 100 μM final concentration and SDF-1α was added at 100 ng/ml final concentration 1 hour prior to exposure to virus. Values are mean±SEM from 12 wells, expressed as the percentage of the reverse transcriptase activity in the supernatant from the control wells. The experiment shown is typical of six separate experiments. (b) HIV (IIIb) infectivity of Jurkat T-cells was estimated by staining cells treated identically to those in (a) for p24^gag expression. Values are mean±S.D. percentage of cells stained for p24gag averaged from 12 fields of view from each of two separate wells. (c) HIV (MN) infectivity of THP-1 cells measured as in (b). MIP-1α was used at 100 ng/ml final concentration. (d) Immunofluorescence micrographs of THP-1 cells 48 hours after exposure to HIV (MN) in the absence (top panel) or presence (lower panel) of 100 μM peptide 3, stained for p24^gag. Several cells in the upper panel, but not the lower panel, show strong, punctuate staining for p24^gag antigen. Both fields of view contain 40-50 cells (assessed by Hoeschst 33345 staining viewed under UV illumination conditions).
Jurkat cells following HIV infection were attached to 8-well chamber slides (Becton-Dickinson) by spinning the slides using a plate rotor in a Labofuge centrifuge (Haeraeus) at 3,000×g for 5 minutes. Attached Jurkat cells or THP-1 cells were then fixed by dipping the slides into ice-cold 70% ethanol for 90 seconds. […] A threshold was then applied to each image which was the lowest threshold that detected <1% of the pixels of an image of uninfected cells stained under identical conditions. The number of objects exceeding this threshold in each field of view were counted. This process, for example, detected 9 objects in the field of view shown in the upper panel of FIG. 54D and 1 object in the field of view shown in the lower panel. […]

Assay [2] deals with MCP-1 induced human monocyte migration. In words: Human monocyte migration, MCP-1. The settings on record: n.s. = no statistically significant inhibition. How it is done: as §1
On day 2, the cells are counted, spun down, and reconstituted to 1×10^7 cells/ml in Gey's balanced salt solution+1 mg/ml bovine serum albumin (BSA). Chemotaxis is induced in a 48 or 96-well disposable chemotaxis chamber fitted with a 5-8 μm polycarbonate filter for monocytes, neutrophils or eosinophils, or a 3 μm filter for lymphocytes (Uguccioni et al, Eur. J. Immunol., 25, 64 (1995); Loetscher et al., J. Exy. Med., 184, 569 (1996); Weber et al., J. Immunol., 4166 (1995)) (PVP free, ChemoTX, Neuroprobe Inc., Cabin John, Md.). Twenty-nine μl of chemoattractant or control are added to the lower compartment of each well. The framed filter is aligned with the holes in the corner of the filter frame and placed over the wells. Two and one-half×10^5 monocytes in 25 μl of Gey's balanced salt solution+1 mg/ml BSA are added to the upper compartment. The agent is dissolved in MilliQ water and then serially diluted in the Gey's balanced salt solution. In most cases, the serially diluted agent is added to the upper compartment of the chemotaxis chamber. […]

No end group written: not given here.

On to “SYRRITSSKCPKEAV [peptide 2(1-15)[MCP-1]]”, for which the “% inhibition at 100 μM versus TGFβ1, human monocyte migration” value in assay [1] is “n.s”. The “inhibition of HIV infectivity of THP-1 cells, p24gag staining” value in the assay with HIV (MN) is 28±5%. For the same sequence, the entries for the “% inhibition at 100 μM versus MCP-1, human monocyte migration” value in assay [2] and in assay [2] (listed as Peptide 2 (SEQ ID NO: 3)) were 20% and 23%, respectively.

EICADPKQKWVQ [peptide 3(1-12)[MCP-1]]: in assay [1], the “% inhibition at 100 μM versus TGFβ1, human monocyte migration” value is “n.s”. In addition, the “inhibition of HIV infectivity of THP-1 cells, p24gag staining” value with HIV (MN) was “more than 80%”; with HIV (MN) (listed as second peptide, spanning amino acids 51 to 62 of human MCP-1), 83±7%. For the same sequence, in assay [2], the “% inhibition at 100 μM versus MCP-1, human monocyte migration” value came out at 108%.
